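Cells were grown in 96-well plates and exposed to each compound for 48 hours at five concentrations; endpoints were interpolated linearly between bracketing concentrations, or set to the highest concentration if not reached. Abbreviation: GI50, concentration required for 50% inhibition of growth.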 Active and inactive are the calls of the source. Cut-off read from the data, not from the text of the source: active = GI50 up to about 1.1 µM and inactive = higher.
What was measured:
Assay in all cases: growth of human tumour cells (NCI), 48 h
PC-3 = system: PC-3
SN12C = system: SN12C
T47D = system: T47D
SF-295 = system: SF-295
RPMI-8226 = system: RPMI-8226
786-0 = system: 786-0
CCRF-CEM = system: CCRF-CEM
SK-MEL-5 = system: SK-MEL-5
OVCAR-5 = system: OVCAR-5
OVCAR-4 = system: OVCAR-4
HT-29 = system: HT-29
OVCAR-3 = system: OVCAR-3
SF-539 = system: SF-539
KM12 = system: KM12
NCI/ADR-RES = system: NCI/ADR-RES
HCT-116 = system: HCT-116
UO-31 = system: UO-31
MCF7 = system: MCF7
NCI-H23 = system: NCI-H23
EKVX = system: EKVX
HCT-15 = system: HCT-15
OVCAR-8 = system: OVCAR-8
Malme-3M = system: Malme-3M
RXF 393 = system: RXF 393
ACHN = system: ACHN
IGROV-1 = system: IGROV-1
NCI-H522 = system: NCI-H522
HOP-92 = system: HOP-92
BT-549 = system: BT-549
U-251 = system: U-251
HL-60 = system: HL-60
MDA-MB-231 = system: MDA-MB-231
MOLT-4 = system: MOLT-4
UACC-62 = system: UACC-62
COLO 205 = system: COLO 205
SW-620 = system: SW-620
TK-10 = system: TK-10
SK-OV-3 = system: SK-OV-3
Hs-578T = system: Hs-578T
SK-MEL-2 = system: SK-MEL-2
HOP-62 = system: HOP-62
CAKI-1 = system: CAKI-1
SR = system: SR
NCI-H226 = system: NCI-H226
DU-145 = system: DU-145
HCC 2998 = system: HCC 2998
NCI-H460 = system: NCI-H460
M14 = system: M14
LOX IMVI = system: LOX IMVI
SNB-19 = system: SNB-19
A498 = system: A498
MDA-N = system: MDA-N
K562 = system: K562
A549 = system: A549
UACC-257 = system: UACC-257
SF-268 = system: SF-268
SNB-75 = system: SNB-75
MDA-MB-435 = system: MDA-MB-435

In the case of `COc1cc2c(cc1[N+](=O)[O-])C(=O)C(Br)(Br)CCC2`, the GI50 (PC-3) was 5 µM (inactive), the GI50 (SN12C) was 2.21 µM (inactive) and the GI50 (T47D) was 2.68 µM (inactive). For the same molecule, the GI50 (SF-295) was 6.52 µM (inactive), the GI50 (RPMI-8226) was 1.8 µM (inactive) and the GI50 (786-0) was 1.26 µM (inactive). For the same molecule, the GI50 (CCRF-CEM) was 0.101 µM (active), the GI50 (SK-MEL-5) was 1.72 µM (inactive) and the GI50 (OVCAR-5) was 1.91 µM (inactive). The GI50 (OVCAR-4) was 4.62 µM (inactive), the GI50 (HT-29) was 4.88 µM (inactive) and the GI50 (OVCAR-3) was 3.51 µM (inactive). For the same molecule, the GI50 (SF-539) was 1.9 µM (inactive), the GI50 (KM12) was 3.78 µM (inactive) and the GI50 (NCI/ADR-RES) was 2.68 µM (inactive). For the same molecule, the GI50 (HCT-116) was 0.697 µM (active), the GI50 (UO-31) was 1.61 µM (inactive) and the GI50 (MCF7) was 2.22 µM (inactive). The GI50 (NCI-H23) was 2.79 µM (inactive), the GI50 (EKVX) was 2.12 µM (inactive) and the GI50 (HCT-15) was 1.66 µM. The GI50 (OVCAR-8) was 2.25 µM (inactive), the GI50 (Malme-3M) was 2.13 µM (inactive) and the GI50 (RXF 393) was 1.93 µM (inactive). The GI50 (ACHN) was 2.11 µM (inactive), the GI50 (IGROV-1) was 0.955 µM (active) and the GI50 (NCI-H522) was 0.771 µM (active). For the same molecule, the GI50 (HOP-92) was 4.46 µM (inactive), the GI50 (BT-549) was 2.12 µM (inactive) and the GI50 (U-251) was 2.23 µM (inactive). For the same molecule, the GI50 (HL-60) was 3.22 µM (inactive), the GI50 (MDA-MB-231) was 3.05 µM (inactive) and the GI50 (MOLT-4) was 0.354 µM (active). The GI50 (UACC-62) was 3.43 µM (inactive), the GI50 (COLO 205) was 1.91 µM (inactive) and the GI50 (SW-620) was 1.88 µM (inactive). For the same molecule, the GI50 (TK-10) was 2.54 µM (inactive), the GI50 (SK-OV-3) was 3.21 µM (inactive) and the GI50 (Hs-578T) was 5.75 µM (inactive). For the same molecule, the GI50 (SK-MEL-2) was 2.13 µM (inactive), the GI50 (HOP-62) was 3.38 µM (inactive) and the GI50 (CAKI-1) was 2.92 µM (inactive). For the same molecule, the GI50 (SR) was 0.743 µM (active), the GI50 (NCI-H226) was 3.47 µM (inactive) and the GI50 (DU-145) was 7.18 µM (inactive). The GI50 (HCC 2998) was 14 µM (inactive), the GI50 (NCI-H460) was 6.65 µM (inactive) and the GI50 (M14) was 2.12 µM (inactive). For the same molecule, the GI50 (LOX IMVI) was 0.4 µM (active), the GI50 (SNB-19) was 7.01 µM (inactive) and the GI50 (A498) was 15.3 µM (inactive). For the same molecule, the GI50 (MDA-N) was 3.09 µM (inactive), the GI50 (K562) was 1.09 µM (active) and the GI50 (A549) was 4.37 µM (inactive). The GI50 (UACC-257) was 13.6 µM (inactive), the GI50 (SF-268) was 4.14 µM (inactive) and the GI50 (SNB-75) was 13.1 µM (inactive). The GI50 (MDA-MB-435) was 2.81 µM (inactive).
With `Cc1ccc(Nc2cc(=O)[nH]c(=S)[nH]2)cc1` the GI50 (PC-3) was > 100 µM (inactive), the GI50 (SN12C) was > 100 µM (inactive) and the GI50 (T47D) was > 100 µM (inactive). For the same molecule, the GI50 (SF-295) was > 100 µM (inactive), the GI50 (RPMI-8226) was > 100 µM (inactive) and the GI50 (786-0) was > 100 µM (inactive). The GI50 (CCRF-CEM) was > 100 µM (inactive), the GI50 (SK-MEL-5) was > 100 µM (inactive) and the GI50 (OVCAR-5) was > 100 µM (inactive). The GI50 (OVCAR-4) was > 100 µM (inactive), the GI50 (HT-29) was > 100 µM (inactive) and the GI50 (OVCAR-3) was > 100 µM (inactive). The GI50 (SF-539) was > 100 µM (inactive), the GI50 (KM12) was > 100 µM (inactive) and the GI50 (NCI/ADR-RES) was > 100 µM (inactive). For the same molecule, the GI50 (HCT-116) was > 100 µM (inactive), the GI50 (UO-31) was > 100 µM (inactive) and the GI50 (MCF7) was > 100 µM (inactive). For the same molecule, the GI50 (NCI-H23) was > 100 µM (inactive), the GI50 (EKVX) was > 100 µM (inactive) and the GI50 (HCT-15) was > 100 µM. For the same molecule, the GI50 (OVCAR-8) was > 100 µM (inactive), the GI50 (Malme-3M) was > 100 µM (inactive) and the GI50 (RXF 393) was > 100 µM (inactive). The GI50 (ACHN) was > 100 µM (inactive), the GI50 (IGROV-1) was > 100 µM (inactive) and the GI50 (NCI-H522) was > 100 µM (inactive). For the same molecule, the GI50 (HOP-92) was > 100 µM (inactive), the GI50 (BT-549) was > 100 µM (inactive) and the GI50 (U-251) was > 100 µM (inactive). For the same molecule, the GI50 (HL-60) was > 100 µM (inactive), the GI50 (MDA-MB-231) was > 100 µM (inactive) and the GI50 (MOLT-4) was > 100 µM (inactive). The GI50 (UACC-62) was > 100 µM (inactive), the GI50 (COLO 205) was > 100 µM (inactive) and the GI50 (SW-620) was > 100 µM (inactive). The GI50 (TK-10) was > 100 µM (inactive), the GI50 (SK-OV-3) was > 100 µM (inactive) and the GI50 (Hs-578T) was > 100 µM (inactive). The GI50 (SK-MEL-2) was > 100 µM (inactive), the GI50 (HOP-62) was > 100 µM (inactive) and the GI50 (CAKI-1) was > 100 µM (inactive). The GI50 (SR) was > 100 µM (inactive), the GI50 (NCI-H226) was > 100 µM (inactive) and the GI50 (DU-145) was > 100 µM (inactive). For the same molecule, the GI50 (HCC 2998) was > 100 µM (inactive), the GI50 (NCI-H460) was > 100 µM (inactive) and the GI50 (M14) was > 100 µM (inactive). For the same molecule, the GI50 (LOX IMVI) was > 100 µM (inactive), the GI50 (SNB-19) was > 100 µM (inactive) and the GI50 (A498) was > 100 µM (inactive). For the same molecule, the GI50 (MDA-N) was > 100 µM (inactive), the GI50 (K562) was > 100 µM (inactive) and the GI50 (A549) was > 100 µM (inactive). For the same molecule, the GI50 (UACC-257) was > 100 µM (inactive), the GI50 (SF-268) was > 100 µM (inactive) and the GI50 (SNB-75) was > 100 µM (inactive). The GI50 (MDA-MB-435) was > 100 µM (inactive).
